Experiments:
beagle dogs [1] = assay: Previous repeated weekly SC toxicology study in beagle dogs (organ weights); format: in vivo; settings: weekly SC x5, 2.5, 7.5 and 20 mg/kg
Procedure: (§1) Supplementary file 40425_2018_363_MOESM2_ESM.pptx: Additional file 2: Effect of pixatimod dosing on selected organ weights in beagle dogs (IV and SC) and rats (SC). Repeated weekly IV exposure (× 5) of pixatimod increases the relative weights of liver (A) and kidney (B) but not thymus (C) nor spleen (D) in beagle dogs. […] Data shown is for combined sexes. […] Study size, n = 15 for control and 48 mg/kg groups and n = 10 for 3 and 12 mg/kg groups. […] Study size, n = 5 for control and 20 mg/kg groups and n = 3 for 2.5 and 7.5 mg/kg groups. *P < 0.05, **P < 0.01, ***P < 0.001 versus control (Kruskal-Wallis test for the dog study, ANOVA followed by Dunnett’s comparison for the rat study). (PPTX 65 kb)

advanced cancer patients = tested on: advanced cancer patients; parameters: method as in PMID 29531325; settings: cited from earlier work
beagle dogs [2] = assay: 1 month GLP toxicology study, weekly IV infusion; format: in vivo
Procedure: A 1 month toxicology study of pixatimod in beagle dogs was performed under OECD Good Laboratory Practice (GLP) to assess the toxicity and toxicokinetic profile of pixatimod with 5 intravenous, short term (approximately 1 h) infusions at three defined dose levels of 2.5, 7.5 and 20 mg/kg weekly over 29 days. Blood samples were collected for toxicokinetic investigation to provide information on the systemic exposure. Parameters monitored included mortality and morbidity, clinical signs, food consumption, body weight and body temperature, ophthalmoscopy and electrocardiographic measurements. Laboratory investigations were performed using haematology (ADVIA 120), coagulation (AMAX Density Plus Coagulometer), clinical chemistry (VITROS 950) and urinalysis (URYXXON 300). At the end of the treatment, all animals were euthanized and subjected to a complete necropsy with selected organs weighed and followed by a detailed histopathology evaluation. Bone marrow smears from the femur and sternum were prepared at necropsy, fixed and stained with May-Grünwald and Giemsa stain for analysis. Blood samples obtained during the Phase Ia monotherapy study (PG545102) were collected weekly and the parameters reported herein were analysed by local hospital laboratories.
In the 4T1.2 model, the percentage tumor growth inhibition was determined according to the following formula: 100 × (1-ΔT/ ΔC) where ΔC and ΔT were calculated by subtracting the mean tumor volume in each group on day 1 of treatment from the mean tumor volume on the day of analysis. Statistical analysis was performed using GraphPad Prism, v 6.0 (GraphPad, La Jolla, CA). An ANOVA analysis was performed followed by Dunnett’s post hoc test to compare the tumor growth in the treated groups to the vehicle control. In the dog toxicology study, the analysis was performed using non-parametric Kruskal-Wallis test. The frequency of clinical observations, and necropsy and histopathology findings, was calculated as applicable. For all statistical analyses, statistically significance differences between control and treatment groups was signified by *P < 0.05, **P < 0.01, ***P < 0.001, ****P < 0.0001 versus vehicle control.

NK cells = assay: NK cell activation in spleen by route of administration; format: in vivo, C57BL/6 mice; settings: 20 mg/kg IP, IV or SC, spleens 2 days later; similar magnitude irrespective of route
Procedure: To investigate the effect that pixatimod route of administration has upon the activity of this compound, C57BL/6 mice were treated with pixatimod 20 mg/kg intraperitoneally (IP), intravenously (IV) or subcutaneously (SC) and 2 days later, spleens were isolated to study the activation levels of NK cells for surface expression of CD69 or intracellular expression of IFN-γ. Antibodies were CD3ε (145-2C11), NK1.1 (PK136), CD69 (H1.2F3), IFN-γ (XMG1.2), hamster IgG1 isotype (G235–2356) and rat IgG1 isotype (R3–34) were from BD Biosciences (San Jose, CA, USA). Intracellular staining for IFN-γ was performed following ex vivo stimulation of splenocytes for 4 h with 20 ng/ml PMA and 50 ng/ml ionomycin in the presence of 5 μg/mL brefeldin A. Intracellular staining for IFN-γ was performed following treatment with Cytofix/Cytoperm (BD Biosciences) solution. Flow cytometric data were acquired using a FACSCanto flow cytometer (BD Biosciences), and events were analysed using FlowJo Version 9.9.6 software (TreeStar, Ashland, OR, USA).

rats = assay: Repeated weekly SC toxicology in rats (organ weights); format: in vivo; settings: weekly SC x5, 3, 12 and 48 mg/kg
Procedure: as §1

[3] = High Dose (20 mg/kg), 6 animals examined
[4] = Low Dose (2.5 mg/kg), 6 animals examined
[5] = Mid Dose (7.5 mg/kg), 6 animals examined

CC(C)CCC[C@@H](C)[C@H]1CC[C@H]2[C@@H]3CC[C@H]4C[C@@H](O[C@@H]5O[C@H](COS(=O)(=O)O)[C@@H](O[C@H]6O[C@H](COS(=O)(=O)O)[C@@H](O[C@H]7O[C@H](COS(=O)(=O)O)[C@@H](O[C@H]8O[C@H](COS(=O)(=O)O)[C@@H](OS(=O)(=O)O)[C@H](OS(=O)(=O)O)[C@H]8OS(=O)(=O)O)[C@H](OS(=O)(=O)O)[C@H]7OS(=O)(=O)O)[C@H](OS(=O)(=O)O)[C@H]6OS(=O)(=O)O)[C@H](OS(=O)(=O)O)[C@H]5OS(=O)(=O)O)CC[C@]4(C)[C@H]3CC[C@]12C [pixatimod]
spleen weight (beagle dogs [1]): no significant effect | dose up to which the compound was well tolerated (advanced cancer patients; IV infusion, monotherapy clinical trial): up to 100 mg | patients with treatment emergent adverse events possibly, likely, or certainly related to pixatimod (advanced cancer patients; Phase Ia monotherapy trial): 20 | estimated median duration of SD (advanced cancer patients): 57 days | patients with stable disease (SD) at 8 weeks by RECIST 1.1 (advanced cancer patients; of 16 patients with efficacy assessments): six | doses inducing flu-like symptoms in patients (advanced cancer patients; required prophylactic paracetamol): ≥ 50 mg | disease control rate at 8 weeks (advanced cancer patients; six of sixteen assessed): 38% | mortality (beagle dogs [2]; 2.5, 7.5 and 20 mg/kg weekly IV over 29 days): no mortality | Kidney: Cell infiltrate, mixed, perivascular, animals affected (beagle dogs [2]; [3]): 6 | Kidney: Cell infiltrate, mixed, perivascular, mild (beagle dogs [2]; [3]): 4 | Kidney: Cell infiltrate, mixed, perivascular, minimal (beagle dogs [2]; [3]): 1 | Kidney: Cell infiltrate, mixed, perivascular, moderate (beagle dogs [2]; [3]): 1 | Kidney: Dilatation tubular, animals affected (beagle dogs [2]; [3]): 6 | Kidney: Dilatation tubular, by grade (minimal or mild, not resolvable) (beagle dogs [2]; [3]): 6 | Kidney: Sclerosis glomerular, animals affected (beagle dogs [2]; [3]): 3 | Kidney: Sclerosis glomerular, mild (beagle dogs [2]; [3]): 1 | Kidney: Sclerosis glomerular, minimal (beagle dogs [2]; [3]): 2 | Kidney: Vacuolation glomerular, animals affected (beagle dogs [2]; [3]): 4 | Kidney: Vacuolation glomerular, mild (beagle dogs [2]; [3]): 4 | Liver: Cell infiltrate, mixed, diffuse, animals affected (beagle dogs [2]; [3]): 2 | Liver: Cell infiltrate, mixed, diffuse, mild (beagle dogs [2]; [3]): 2 | Liver: Cell infiltrate, mononuclear, multifocal, animals affected (beagle dogs [2]; [3]): 0 | Liver: Hypertrophy hepatocellular, animals affected (beagle dogs [2]; [3]): 6 | Liver: Hypertrophy hepatocellular, mild (beagle dogs [2]; [3]): 5 | Liver: Hypertrophy hepatocellular, minimal (beagle dogs [2]; [3]): 1 | Liver: Hypertrophy, Kupffer cells, animals affected (beagle dogs [2]; [3]): 6 | Liver: Hypertrophy, Kupffer cells, mild (beagle dogs [2]; [3]): 4 | Liver: Hypertrophy, Kupffer cells, minimal (beagle dogs [2]; [3]): 2 | Spleen: Cell infiltrate, mixed cellular, diffuse (minimal), animals affected (beagle dogs [2]; [3]): 4 | Thymus: Lymphoid atrophy, animals affected (beagle dogs [2]; [3]): 2 | Thymus: Lymphoid atrophy, mild (beagle dogs [2]; [3]): 1 | Thymus: Lymphoid atrophy, minimal (beagle dogs [2]; [3]): 1 | Kidney: Cell infiltrate, mixed, perivascular, animals affected (beagle dogs [2]; [4]): 1 | Kidney: Cell infiltrate, mixed, perivascular, minimal (beagle dogs [2]; [4]): 1 | Kidney: Dilatation tubular, animals affected (beagle dogs [2]; [4]): 4 | Kidney: Dilatation tubular, minimal (beagle dogs [2]; [4]): 4 | Kidney: Sclerosis glomerular, animals affected (beagle dogs [2]; [4]): 0 | Kidney: Vacuolation glomerular, animals affected (beagle dogs [2]; [4]): 0 | Liver: Cell infiltrate, mixed, diffuse, animals affected (beagle dogs [2]; [4]): 0 | Liver: Cell infiltrate, mononuclear, multifocal, animals affected (beagle dogs [2]; [4]): 0 | Liver: Hypertrophy hepatocellular, animals affected (beagle dogs [2]; [4]): 5 | Liver: Hypertrophy hepatocellular, mild (beagle dogs [2]; [4]): 3 | Liver: Hypertrophy hepatocellular, minimal (beagle dogs [2]; [4]): 2 | Liver: Hypertrophy, Kupffer cells, animals affected (beagle dogs [2]; [4]): 2 | Liver: Hypertrophy, Kupffer cells, mild (beagle dogs [2]; [4]): 1 | Liver: Hypertrophy, Kupffer cells, minimal (beagle dogs [2]; [4]): 1 | Spleen: Cell infiltrate, mixed cellular, diffuse (minimal), animals affected (beagle dogs [2]; [4]): 0 | Kidney: Cell infiltrate, mixed, perivascular, animals affected (beagle dogs [2]; [5]): 5 | Kidney: Cell infiltrate, mixed, perivascular, mild (beagle dogs [2]; [5]): 1 | Kidney: Cell infiltrate, mixed, perivascular, minimal (beagle dogs [2]; [5]): 4 | Kidney: Dilatation tubular, animals affected (beagle dogs [2]; [5]): 6 | Kidney: Dilatation tubular, mild (beagle dogs [2]; [5]): 1 | Kidney: Dilatation tubular, minimal (beagle dogs [2]; [5]): 5 | Kidney: Sclerosis glomerular, animals affected (beagle dogs [2]; [5]): 0 | Kidney: Vacuolation glomerular, animals affected (beagle dogs [2]; [5]): 0 | Liver: Cell infiltrate, mixed, diffuse, animals affected (beagle dogs [2]; [5]): 0 | Liver: Cell infiltrate, mononuclear, multifocal, animals affected (beagle dogs [2]; [5]): 0 | Liver: Hypertrophy hepatocellular, animals affected (beagle dogs [2]; [5]): 6 | Liver: Hypertrophy hepatocellular, mild (beagle dogs [2]; [5]): 5 | Liver: Hypertrophy hepatocellular, minimal (beagle dogs [2]; [5]): 1 | Liver: Hypertrophy, Kupffer cells, animals affected (beagle dogs [2]; [5]): 6 | Liver: Hypertrophy, Kupffer cells, mild (beagle dogs [2]; [5]): 2 | Liver: Hypertrophy, Kupffer cells, minimal (beagle dogs [2]; [5]): 4 | Spleen: Cell infiltrate, mixed cellular, diffuse (minimal), animals affected (beagle dogs [2]; [5]): 2 | AST (beagle dogs [2]; after 5 weekly IV doses): significant changes | large unstained cells (LUCs) (beagle dogs [2]; blood, following exposure): significant increases | bone marrow smears (beagle dogs [2]; femur and sternum at necropsy): No treatment-related changes | body temperature (beagle dogs [2]; following the first dose, dissipated upon repeat dosing by day 30): significant elevations | absolute WBC counts and main subsets (lymphocytes, neutrophils and monocytes) (beagle dogs [2]; weekly IV dosing): remained within normal ranges | relative weight of kidneys (beagle dogs [2]; weekly IV x5): significantly increased | relative weight of liver (beagle dogs [2]; weekly IV x5): significantly increased | spleen weight (beagle dogs [2]; weekly IV x5): no effect | thymus weights (beagle dogs [2]; weekly IV x5): modest but dose-dependent decreases | expression of IFN-γ and CD69 on NK cells (NK cells): increased | Relative spleen weight (rats): increased in a dose-dependent manner

Source: publication PMC6000956, “Immunomodulatory activities of pixatimod: emerging nonclinical and clinical data, and its potential utility in combination with PD-1 inhibitors” (Journal for Immunotherapy of Cancer, 2018)
